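How tested: cells in 96-well plates exposed to compound for 48 hours at five concentrations. GI50: concentration for 50% inhibition of growth. TGI is the concentration that stops growth completely.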
Assays:
Assay in all cases: DTP human tumour cell line panel, 48 h
SNB-19 CNS = tested on: SNB-19 CNS
SF-295 CNS = tested on: SF-295 CNS
SR leukemia = tested on: SR leukemia
K-562 leukemia = tested on: K-562 leukemia
EKVX NSCLC = tested on: EKVX NSCLC
HOP-92 NSCLC = tested on: HOP-92 NSCLC
RPMI-8226 leukemia = tested on: RPMI-8226 leukemia
IGROV1 ovarian = tested on: IGROV1 ovarian
HOP-62 NSCLC = tested on: HOP-62 NSCLC
UACC-62 melanoma = tested on: UACC-62 melanoma

SMILES	GI50 (SNB-19 CNS)	TGI (SNB-19 CNS)	GI50 (SF-295 CNS)	TGI (SF-295 CNS)	GI50 (SR leukemia)	TGI (SR leukemia)	GI50 (K-562 leukemia)	TGI (K-562 leukemia)	GI50 (EKVX NSCLC)	TGI (EKVX NSCLC)	GI50 (HOP-92 NSCLC)	TGI (HOP-92 NSCLC)	GI50 (RPMI-8226 leukemia)	TGI (RPMI-8226 leukemia)	GI50 (IGROV1 ovarian)	TGI (IGROV1 ovarian)	GI50 (HOP-62 NSCLC)	TGI (HOP-62 NSCLC)	GI50 (UACC-62 melanoma)	TGI (UACC-62 melanoma)
O=C(Nc1ccccc1OC(F)(F)F)Nc1n[nH]c2ccccc12	78.3 µM	> 100 µM	39 µM	> 100 µM	0.0489 µM	24 µM	47.2 µM	> 100 µM	48.2 µM	> 100 µM	12.9 µM	83.2 µM	5.2 µM	53.1 µM	4.59 µM	83.6 µM	19.6 µM	73.4 µM	31.7 µM	> 100 µM
Cn1cnc([N+](=O)[O-])c1Sc1nnc(-c2cccnc2)n1C		> 100 µM		> 100 µM		45.5 µM		57.8 µM		66.4 µM		30.6 µM		49.4 µM		> 100 µM		> 100 µM		32.6 µM
Clc1ccc2c(NCCCCNc3nc(N4CCCCC4)nc4ccccc34)ccnc2c1	3.09 µM	14.2 µM	1.22 µM	2.6 µM	0.408 µM	2.88 µM	1.34 µM	4.1 µM	2.69 µM	13.8 µM	1.56 µM	3.39 µM	1.46 µM	3.94 µM	1.8 µM	6.59 µM	1.9 µM	5.88 µM	1.79 µM	3.48 µM
O=C1C(=O)N(c2ccc(Cl)cc2Cl)C(=O)C(=O)C1c1nc2ccccc2s1		> 100 µM		> 100 µM		79.2 µM		> 100 µM		> 100 µM		> 100 µM		> 100 µM		> 100 µM		> 100 µM		> 100 µM
CN1C(=O)C(C)(C)C2(SC(C)(C)C2(C)C)N(C)C1=S (stereo not given)		> 100 µM		> 100 µM		> 100 µM		> 100 µM		> 100 µM		> 100 µM		> 100 µM		> 100 µM		> 100 µM		> 100 µM
NC(=O)c1cccc2cn(-c3ccc([C@@H]4CCCNC4)cc3)nc12	17.1 µM	> 92.7 µM	4.65 µM	18.1 µM	1.94 µM	12.5 µM	14.1 µM	36.8 µM	19.7 µM	64.2 µM	21.5 µM	89.9 µM	22.5 µM	> 80.6 µM	15.3 µM	52.3 µM	8.44 µM	27.8 µM	13.6 µM	27 µM
CCOc1ccc(NC(=O)C(=O)CC(=O)c2c[n+](=O)c3cc(C)c(C)cc3n2[O-])cc1		> 100 µM		> 100 µM		> 100 µM		> 100 µM		> 100 µM		> 100 µM		> 100 µM		> 100 µM		> 100 µM		> 100 µM
O=C(CC1(O)C(=O)Nc2c(Cl)cc(Cl)cc21)c1ccc(Br)cc1Br (stereo not given)		41 µM		34.9 µM		> 22 µM		9 µM		34.6 µM		9.75 µM		21.6 µM		34.7 µM		36.5 µM		25.6 µM
